This note sets out measurements from ChEMBL document CHEMBL1131873, “Induction of erythroid differentiation of human K562 cells by 3-O-acyl-1,2-O-isopropylidene-D-glucofuranose derivatives” (Bioorg Med Chem Lett, 1999).

In experiment [1] the test system is K562. As to the kind of experiment: Effect of compound on erythroid differentiation of K562 cells was determined after a period of 7 days at concentration 4 mM. Type of experiment: functional, Homo sapiens.
In experiment [2] the test system is K562. As to the kind of experiment: Effect of compound on erythroid differentiation of K562 cells was determined after a period of 9 days at concentration 4 mM. Type of experiment: functional, Homo sapiens.
In experiment [3] the test system is K562. The experiment in a line: Effect of compound on erythroid differentiation of K562 cells was determined after a period of 3 days at concentration 4 mM. Type of experiment: functional, Homo sapiens.
Experiment [4] concerns K562. The experiment in a line: Effect of compound on erythroid differentiation of K562 cells was determined after a period of 5 days at concentration 4 mM. In kind it is functional, Homo sapiens.
For experiment [5], the system named is K562. The experiment in a line: Evaluated for erythroid induction of benzidine-positive K562 cells at concentration 3 mM. Type of experiment: functional, Homo sapiens.
Experiment [6] deals with K562. As to the kind of experiment: Inhibition of cell growth against human myeloid leukemia K562(S) cells. In kind it is functional, cell-based.
In experiment [7] the test system is K562. The experiment in a line: Evaluated for erythroid induction of benzidine-positive K562 cells at concentration 2 mM after 9 day induction period. In kind it is functional, Homo sapiens.
The test system of experiment [8] is K562. The experiment in a line: Compound was evaluated for erythroid induction of benzidine-positive K562 cells at concentration 3 mM after 9 day induction period. Type of experiment: functional, Homo sapiens.
Experiment [9] deals with K562. The experiment in a line: Compound was evaluated for erythroid induction of benzidine-positive K562 cells at concentration 4 mM after 9 day induction period. Type of experiment: functional, Homo sapiens.
Experiment [10] relates to K562. The experiment in a line: Compound was evaluated for erythroid induction of benzidine-positive K562 cells at concentration 5 mM after 9 day induction period. In kind it is functional, Homo sapiens.
Experiment [11] has as its system K562. The experiment in a line: Compound was evaluated for erythroid induction of benzidine-positive K562 cells at concentration 1 mM after 9 day induction period. Type of experiment: functional, Homo sapiens.
In experiment [12] the test system is K562. As to the kind of experiment: Compound (2 mM) was evaluated for maximum level of percentage of benzidine-positive (hemoglobin-containing) K562 cells in the presence of ara-C (25 nM). In kind it is functional, Homo sapiens.
The test system of experiment [13] is K562. The experiment in a line: Compound was evaluated for erythroid induction of benzidine-positive K562 cells at concentration 4 mM. In kind it is functional, Homo sapiens.
Experiment [14] has as its system K562. The experiment in a line: Compound was evaluated for erythroid induction of benzidine-positive K562 cells at concentration 5 mM. In kind it is functional, Homo sapiens.
The subject of experiment [15] is K562. As to the kind of experiment: Compound (2 mM) was evaluated for maximum level of percentage of benzidine-positive (hemoglobin-containing) K562 cells in the presence of retinoic acid (5 µM).
The subject of experiment [16] is K562. As to the kind of experiment: Effect of compound on erythroid differentiation of K562 cells was determined after a period of 9 days at concentration 20 nM. Type of experiment: functional, Homo sapiens.
Experiment [17] has as its system K562. As to the kind of experiment: Effect of compound on erythroid differentiation of K562 cells was determined after a period of 3 days at concentration 20 nM. In kind it is functional, Homo sapiens.
In experiment [18] the test system is K562. The experiment in a line: Effect of compound on erythroid differentiation of K562 cells was determined after a period of 5 days at concentration 20 nM. Type of experiment: functional, Homo sapiens.
Experiment [19] deals with K562. As to the kind of experiment: Effect of compound on erythroid differentiation of K562 cells was determined after a period of 7 days at concentration 20 nM. Type of experiment: functional, Homo sapiens.
Experiment [20] has as its system K562. The experiment in a line: The compound was evaluated for inhibition of cell growth against human myeloid leukemia K562(S) cells. In kind it is functional, cell-based.
In experiment [21] the test system is K562. The experiment in a line: Maximum level of percentage of benzidine-positive (hemoglobin-containing) K562 cells reached with in 9 days at 4 mM concentration. In kind it is functional, Homo sapiens.
In experiment [22] the test system is K562. As to the kind of experiment: Maximum level of percentage of benzidine-positive (hemoglobin-containing) K562 cells reached with in 9 days at 3 mM concentration. In kind it is functional, Homo sapiens.
The subject of experiment [23] is K562. As to the kind of experiment: In vitro inhibition of cell growth against human myeloid leukemia K562(S) cells. Type of experiment: functional, cell-based.
Experiment [24] relates to K562. The experiment in a line: Effect of compound on erythroid differentiation of K562 cells was determined after a period of 7 days at concentration 500 nM. Type of experiment: functional, Homo sapiens.
In experiment [25] the test system is K562. The experiment in a line: Effect of compound on erythroid differentiation of K562 cells was determined after a period of 9 days at concentration 500 nM. In kind it is functional, Homo sapiens.
Experiment [26] has as its system K562. As to the kind of experiment: Effect of compound on erythroid differentiation of K562 cells was determined after a period of 3 days at concentration 500 nM. Type of experiment: functional, Homo sapiens.
Experiment [27] has as its system K562. The experiment in a line: Effect of compound on erythroid differentiation of K562 cells was determined after a period of 5 days at concentration 500 nM. Type of experiment: functional, Homo sapiens.
The test system of experiment [28] is K562. The experiment in a line: Compound (2 mM) was evaluated for maximum level of percentage of benzidine-positive (hemoglobin-containing) K562 cells in the presence of mithramycin (5 nM). Type of experiment: functional, Homo sapiens.
Experiment [29] has as its system K562. The experiment in a line: Compound (2 mM) was evaluated for maximum level of percentage of benzidine-positive (hemoglobin-containing) K562 cells in the presence of retinoic acid (5 uM). Type of experiment: functional, Homo sapiens.

The structures appear in SMILES notation. pIC50: −log10 of the molar value.

The term pIC50 denotes −log10 of the IC50, conventionally taken in molar units. Lower therefore signals a large IC50. `CC(C)(C)C(=O)O` [PIVALATE]: the Erythroid induction is 11% with K562 [1]; 6% with K562 [2]; 4% in the experiment on K562 [3]; 9% in the experiment with K562 [4]; 12% in the experiment on K562 [5]. Besides, the pIC50 in the experiment with K562 [6] is 2.35.
`CC(C)CC(=O)OC1C(C(O)CO)OC2OC(C)(C)OC21` (stereo not drawn): the Erythroid induction in the experiment with K562 [7] was found to be 12%. In the experiment with K562 [6], this molecule had a pIC50 of 3.00.
For `CC1(C)OC2OC(C(O)CO)C(OC(=O)C3CCCC3)C2O1` (stereo not drawn), the figures for the Erythroid induction in the experiment with K562 [8], in the experiment on K562 [9] and in the experiment on K562 [10] were 7%, 16.8% and 8%, respectively. The molecule also showed a pIC50 in the experiment with K562 [6] of 2.60.
For the molecule `CC(CC(=O)OC1C(C(O)CO)OC2OC(C)(C)OC21)c1ccccc1` (stereo not drawn), the Erythroid induction in the experiment on K562 [11] is given as 15%. This molecule also had a pIC50 in the experiment on K562 [6] of 3.30.
In the case of `CCCCC(=O)OC1C(C(O)CO)OC2OC(C)(C)OC21` (stereo not drawn), the Erythroid induction in the experiment on K562 [7] was found to be 24%; in the experiment on K562 [8], 28%; in the experiment with K562 [9], 25%. The same molecule showed a pIC50 in the experiment with K562 [6] of 2.70.
In turn, `CCCC(=O)OC1C(C(O)CO)OC2OC(C)(C)OC21` (stereo not drawn) gave an Erythroid induction in the experiment on K562 [7] of 25.4%. The molecule also had a negative logarithm of the IC50 (pIC50) in the experiment on K562 [6] of 3.10.
Regarding `CC(C)C(=O)OC1C(C(O)CO)OC2OC(C)(C)OC21` (stereo not drawn), the Erythroid induction in the experiment on K562 [1] amounted to 56.8%; with K562 [2] it was 50%; in the experiment on K562 [12], 78%; in the experiment with K562 [3] it was 20%; in the experiment on K562 [4], 35%; in the experiment with K562 [5], 43%. Besides, the Erythroid induction in the experiment on K562 [13] is recorded as 54.2%; in the experiment on K562 [14], 59%; with K562 [15], 55.8%. Besides, the pIC50 in the experiment on K562 [6] is 2.60.
In the case of `CCC(=O)OC1C(C(O)CO)OC2OC(C)(C)OC21` (stereo not drawn), the values for the Erythroid induction with K562 [7], with K562 [8] and in the experiment on K562 [9] were 21%, 19.6% and 25%, respectively. This molecule also showed a pIC50 in the experiment with K562 [6] of 2.62.
Regarding `CCCCCC(=O)OC1C(C(O)CO)OC2OC(C)(C)OC21` (stereo not drawn), the Erythroid induction with K562 [11] was 10.3%; in the experiment with K562 [7] it was 21%. Also, the pIC50 in the experiment on K562 [6] is 2.92.
As for `CCCC(=O)O` [BUTYRIC ACID], the Erythroid induction in the experiment on K562 [5] is given as 35%. The pIC50 with K562 [6] is 2.62.
`CC(C)C(=O)O`: the Erythroid induction is 12% with K562 [1]; 8% in the experiment with K562 [2]; 12% with K562 [3]; 14% with K562 [4]; 14% in the experiment with K562 [5]. Also, the pIC50 with K562 [6] is 2.32.
In turn, `CCC(=O)O` [PROPIONIC ACID] came in with an Erythroid induction with K562 [9] of 10%. This molecule gave a pIC50 in the experiment with K562 [6] of 2.40.
Turning to `CO[C@H](C(=O)[C@@H](O)[C@@H](C)O)[C@@H]1Cc2cc3cc(O[C@H]4C[C@@H](O[C@@H]5C[C@@H](O)[C@H](O)[C@@H](C)O5)[C@H](O)[C@@H](C)O4)c(C)c(O)c3c(O)c2C(=O)[C@H]1O[C@H]1C[C@@H](O[C@@H]2C[C@@H](O)[C@@H](O[C@@H]3C[C@](C)(O)[C@H](O)[C@@H](C)O3)[C@@H](C)O2)[C@H](O)[C@@H](C)O1` [PLICAMYCIN], the Erythroid induction is listed as 80% in the experiment on K562 [16]; 15% in the experiment with K562 [17]; 55% in the experiment with K562 [18]; 75% with K562 [19]; 81% with K562 [5]. Besides, the pIC50 with K562 [20] was 8.00.
For the molecule `CC1(C)OC2OC(C(O)CO)C(OC(=O)CC(c3ccccc3)c3ccccc3)C2O1` (stereo not drawn), in the experiment with K562 [11], the Erythroid induction was 14%. This molecule also had a pIC50 in the experiment with K562 [6] of 3.30.
Take `CC(=O)OC1C(C(O)CO)OC2OC(C)(C)OC21` (stereo not drawn): the Erythroid induction with K562 [21] amounted to 27%. This molecule had a pIC50 in the experiment on K562 [6] of 2.42.
In the experiment with K562 [7], `CC(C)(C)CC(=O)OC1C(C(O)CO)OC2OC(C)(C)OC21` (stereo not drawn) yielded an Erythroid induction of 20%. Further, in the experiment on K562 [6], the pIC50 is 2.92.
With `CC1(C)OCC(C2OC3OC(C)(C)OC3C2O)O1` (stereo not drawn), the Erythroid induction came to 26% in the experiment with K562 [22] and 18% in the experiment with K562 [21]. Moreover, the pIC50 in the experiment with K562 [23] is 2.55.
`Nc1ccn([C@@H]2O[C@H](CO)[C@@H](O)[C@@H]2O)c(=O)n1` [CYTARABINE]: the Erythroid induction was found to be 84.5% in the experiment with K562 [24]; 93.2% in the experiment on K562 [25]; 45% with K562 [26]; 61.5% in the experiment on K562 [27]; 95% with K562 [5]. Further, the pIC50 in the experiment with K562 [6] was 6.30.
Take `CC1(C)OC2OC(C(O)CO)C(OC(=O)C(C)(C)C)C2O1` (stereo not drawn): the Erythroid induction with K562 [1] came to 50.7%; with K562 [2] it was 59%; in the experiment with K562 [12] it was 90%; with K562 [28], 34%; in the experiment on K562 [29], 67%; in the experiment with K562 [3], 22%. In addition, the Erythroid induction is reported as 25% with K562 [4], 51.7% in the experiment on K562 [5] and 50.2% in the experiment with K562 [13]. For the same molecule, the pIC50 with K562 [6] is 2.82.
